# Results published in US20250082624A1, “METHODS OF TREATING COGNITIVE IMPAIRMENT” (NeuroTherapia, Inc., priority 2023, published 2025).
# Values joined by “and” are separate entries in the source; they are usually repeats but may differ in a detail not shown here. Equal entries are not always repeated. “Also recorded” adds a separate entry of the source.
# Assay: Phase 1b MAD plasma pharmacokinetics, non-compartmental analysis
# Assay type: in vivo, human
# Excerpt: Methods: All study procedures were approved by the IRB, and informed consent was obtained. Three cohorts of volunteers 45-80 years of age with well-controlled comorbidities (NOAD) and one cohort of AD patients diagnosed with cognitive impairment consistent with prodromal AD per International Working Group criteria or mild AD per National Institute on Aging—Alzheimer's Association criteria (n=6 active, 2 placebo per cohort) were enrolled. Participants were admitted to the study site for the duration of the dosing and returned 7-12 days after the last dose for a safety visit. Participants received NTRX-07 (10, 30, or 90 mg) or a placebo in a double-blinded randomization orally once daily for seven days. Subjects were assessed for changes in vital signs, including maneuvers to induce lightheadedness, electrocardiograms, 24-hour electroencephalograms (EEG), and safety laboratory studies. The second cohort returned and received a single repeat dose after a standard high-fat meal. The AD cohort also underwent cognitive testing and had blood samples for biomarkers drawn. Subjects had PK sampling done after the first and final dose of the study drug. An independent safety review committee conducted a blinded safety review of adverse events and plasma levels between each cohort.
# All subjects had PK sampling done after the first and final dose of the study drug.
# (§1) Raw bioanalytical data were received from Nuvisan following analysis of plasma samples from each of four cohorts. PK parameters were calculated by noncompartmental analysis using standard equations. Specifically, area under the plasma concentration versus time curve (AUC) was calculated using the trapezoid rule. Maximal plasma concentration (Cmax) and time of maximal plasma concentration (Tmax) were taken directly from the data. Clearance divided by bioavailability (Cl/F) was calculated as the dose divided by the AUC. Apparent volume of distribution over bioavailability (Vd/F) was calculated as dose divided by Cmax.
# With oral administration of the dose every 24 hours for 7 days, blood samples were taken over a 24-hour interval on Days 1 and 7 and before and after dosing on Day 3.
# as §1, with “on Oct. 27, 2022. […]” for “following analysis of plasma samples from each of four cohorts. PK parameters were calculated by noncompartmental analysis using standard equations.”
# as §1, with “on Nov. 24, 2022. […]” for “following analysis of plasma samples from each of four cohorts. PK parameters were calculated by noncompartmental analysis using standard equations.”
# as §1, with “on Dec. 19, 2022. […]” for “following analysis of plasma samples from each of four cohorts. PK parameters were calculated by noncompartmental analysis using standard equations.”
# Raw bioanalytical data were received from Nuvisan on Jun. 30, 2023. […] Specifically, area under the plasma concentration versus time curve (AUC) was calculated using the trapezoid rule. Maximal plasma concentration (Cmax) and time of maximal plasma concentration (Tmax) were taken directly from the data. […]
# [1] = Table 9: Cohort A, 10 mg QD oral, Day 1, individual subjects
# [2] = Table 10: Cohort A, 10 mg QD oral, Day 7, individual subjects
# [3] = Table 11: Cohort B, 30 mg QD oral, Day 1, individual subjects
# [4] = Table 12: Cohort B, 30 mg QD oral, Day 7, individual subjects
# [5] = Table 13: Cohort B Fed, 30 mg oral, fed state, individual subjects
# [6] = Table 14: Cohort C, 90 mg QD oral, Day 1, individual subjects
# [7] = Table 15: Cohort C, 90 mg QD oral, Day 7, individual subjects
# [8] = Table 16: Cohort D (AD), 90 mg QD oral, Day 1, individual subjects
# [9] = Table 17: Cohort D (AD), 90 mg QD oral, Day 7, individual subjects
compound,measurement,setting,value
"CC1(Cc2ccccc2)COc2cc(C(=O)N3CCCCC3)ccc21 (centres unmarked) [NTRX-07, 3-benzyl-3-methyl-2,3-dihydrobenzofuran-6-carboxylic acid-piperidine amide]",Food effect on Cmax,30 mg after standard high-fat meal vs fasted,decreased Cmax; also recorded: muting of Cmax
same,Plasma levels vs target / predicted efficacious levels,"90 mg dose, allometric scaling of preclinical data",within the target ranges; also recorded: Blood levels equivalent to those that were efficacious in animal models of AD; also recorded: consistent with levels predicted to be efficacious
same,Dose linearity of PK,10-90 mg QD,PK is linear across this dose range
same,Dose linearity of PK (interim analyses),"40, 120 and 360 mg SDD QD doses",Good dose linearity; also recorded: linear; also recorded: Dose linearity was observed
same,Accumulation over seven days of dosing,"Cohort A, 40 mg SDD QD",little or no accumulation
same,Accumulation over seven days of dosing,"Cohort B, 120 mg SDD QD",little or no accumulation
same,Accumulation over seven days of dosing,"Cohort C, 360 mg SDD QD",little or no accumulation
same,Average of Cl/F,"Cohort D AD patients, 90 mg QD oral, Day 1, mean ± SD",62 ± 19 L/h
same,AUClast,[1],31.6 ng·h/mL and 66.2 ng·h/mL and 131.4 ng·h/mL and 33.4 ng·h/mL and 126.9 ng·h/mL and 83.1 ng·h/mL
same,Cl/F,[1],316.3 L/h and 151.1 L/h and 76.1 L/h and 299.0 L/h and 78.8 L/h and 120.4 L/h
same,Cmax,[1],24.2 ng/mL and 45.0 ng/mL and 36.7 ng/mL and 18.2 ng/mL and 52.6 ng/mL and 37.0 ng/mL
same,Tmax,[1],1.0 h
same,Cl/F,"Table 9: Cohort A, 10 mg QD oral, Day 1, mean ± S.D.",174 ± 108 L/h
same,AUC24 h,[2],47.8 ng·h/mL and 88.4 ng·h/mL and 223.8 ng·h/mL and 39.5 ng·h/mL and 80.4 ng·h/mL and 62.9 ng·h/mL
same,Cl/F,[2],209.3 L/h and 113.2 L/h and 44.7 L/h and 253.4 L/h and 124.4 L/h and 158.9 L/h
same,Cmax,[2],29.6 ng/mL and 39.4 ng/mL and 63.6 ng/mL and 19.6 ng/mL and 46.7 ng/mL and 27.1 ng/mL
same,Tmax,[2],1.0 h
same,Cl/F,"Table 10: Cohort A, 10 mg QD oral, Day 7, mean ± S.D.",151 ± 74 L/h
same,AUClast,[3],141.9 ng·h/mL and 462.4 ng·h/mL and 716.1 ng·h/mL and 369.3 ng·h/mL and 222.6 ng·h/mL and 92.5 ng·h/mL and 293.8 ng·h/mL
same,Cl/F,[3],211.4 L/h and 64.9 L/h and 41.9 L/h and 81.2 L/h and 134.7 L/h and 324.4 L/h and 102.1 L/h
same,Cmax,[3],60.8 ng/mL and 93.9 ng/mL and 209 ng/mL and 127 ng/mL and 153 ng/mL and 47.9 ng/mL and 70.6 ng/mL
same,Tmax,[3],1.0 h (3×) and 2.0 h
same,Cl/F,"Table 11: Cohort B, 30 mg QD oral, Day 1, mean ± S.D.",137 ± 99 L/h
same,AUClast,[4],113 ng·h/mL and 581 ng·h/mL and 286 ng·h/mL and 212 ng·h/mL and 61 ng·h/mL and 166 ng·h/mL
same,Cl/F,[4],265.0 L/h and 51.7 L/h and 105.0 L/h and 141.2 L/h and 492.7 L/h and 181.3 L/h
same,Cmax,[4],92.9 ng/mL and 236 ng/mL and 127 ng/mL and 186 ng/mL and 42.4 ng/mL and 37.9 ng/mL
same,Tmax,[4],1 h
same,Cl/F,"Table 12: Cohort B, 30 mg QD oral, Day 7, mean ± S.D.",206 ± 176 L/h
same,AUClast,[5],421 ng·h/mL and 944 ng·h/mL and 471 ng·h/mL and 347 ng·h/mL and 110 ng·h/mL and 312 ng·h/mL and 124 ng·h/mL and 364 ng·h/mL
same,Cl/F,[5],71.2 L/h and 31.8 L/h and 63.7 L/h and 86.4 L/h and 272.1 L/h and 96.3 L/h and 242.3 L/h and 82.5 L/h
same,Cmax,[5],42 ng/mL and 95.5 ng/mL and 39.6 ng/mL and 32.3 ng/mL and 66.8 ng/mL and 20.3 ng/mL and 58.4 ng/mL
same,Tmax,[5],1 h (2×) and 3 h (2×) and 1.5 h (3×) and 6 h
same,Cl/F,"Table 13: Cohort B Fed, 30 mg oral, fed state, mean ± S.D.",123 ± 94 L/h
same,AUC24 h,[6],1629 ng·h/mL and 857 ng·h/mL and 925 ng·h/mL and 657 ng·h/mL and 1730 ng·h/mL and 1807 ng·h/mL
same,Cl/F,[6],55.2 L/h and 105.1 L/h and 97.3 L/h and 137.0 L/h and 52.0 L/h and 49.8 L/h
same,Cmax,[6],449 ng/mL and 350 ng/mL and 337 ng/mL and 92.4 ng/mL and 713 ng/mL and 456 ng/mL
same,Tmax,[6],1.5 h (3×) and 8 h and 1 h
same,Cl/F,"Table 14: Cohort C, 90 mg QD oral, Day 1, mean ± S.D.",83 ± 36 L/h
same,AUC24 h,[7],783 ng·h/mL and 604 ng·h/mL and 318 ng·h/mL and 516 ng·h/mL and 876 ng·h/mL and 1349 ng·h/mL
same,Cl/F,[7],115.0 L/h and 149.1 L/h and 283.5 L/h and 174.4 L/h and 102.7 L/h and 66.7 L/h
same,Cmax,[7],167 ng/mL and 230 ng/mL and 155 ng/mL and 114 ng/mL and 105 ng/mL and 361 ng/mL
same,Tmax,[7],2 h and 1.5 h and 3 h
same,Cl/F,"Table 15: Cohort C, 90 mg QD oral, Day 7, mean ± S.D.",149 ± 76 L/h
same,AUClast,[8],1004 ng·h/mL and 1255 ng·h/mL and 2727 ng·h/mL and 1349 ng·h/mL and 1580 ng·h/mL and 1422 ng·h/mL
same,Cl/F,[8],89.6 L/h and 71.7 L/h and 33.0 L/h and 66.7 L/h and 57.0 L/h and 63.3 L/h
same,Cmax,[8],234 ng/mL and 491 ng/mL and 685 ng/mL and 435 ng/mL and 434 ng/mL and 587 ng/mL
same,Tmax,[8],2 h and 1 h (2×) and 1.5 h
same,Cl/F,"Table 16: Cohort D (AD), 90 mg QD oral, Day 1, mean ± S.D.",64 ± 19 L/h
same,AUC24 h,[9],1067 ng·h/mL and 994 ng·h/mL and 856 ng·h/mL and 608 ng·h/mL and 689 ng·h/mL
same,Cl/F,[9],144.6 L/h and 84.4 L/h and 90.5 L/h and 105.2 L/h and 148.0 L/h and 130.6 L/h
